Patent US3989598A (priority 1962, dated 1976)
Converted amounts (≈) assume the structure as drawn. Where a name gives a salt, the structure may show the parent alone.

Key:
solubility = format: physicochemical
[1] = test system: Staphylococcus aureus strain B3; experiment: bacteriostatic activity, dilution method in nutritive broth; format: cell-based; settings: B3, read-out: Minimal bacteriostatic concentration
[2] = test system: Staphylococcus aureus strain Hb; experiment: as above; format: cell-based; settings: read-out: Minimal bacteriostatic concentration
[3] = test system: Staphylococcus aureus strain Launoy 1; experiment: as above; format: cell-based; settings: LAUNOY1, strain Launoy 1 (tetracycline, streptomycin, chloramphenicol and penicillin resistant), read-out: Minimal bacteriostatic concentration
[4] = test system: Staphylococcus aureus strain Launoy 2; experiment: as above; format: cell-based; settings: LAUNOY2, strain Launoy 2 (tetracycline, streptomycin and penicillin resistant), read-out: Minimal bacteriostatic concentration
[5] = test system: Staphylococcus aureus strain 1142 R; experiment: as above; format: cell-based; settings: read-out: Minimal bacteriostatic concentration
[6] = test system: Staphylococcus aureus strain 3486 R; experiment: as above; format: cell-based; settings: read-out: Minimal bacteriostatic concentration
[7] = test system: Staphylococcus aureus carbomycin resistant strain; experiment: as above; format: cell-based; settings: read-out: Minimal bacteriostatic concentration
[8] = test system: Staphylococcus aureus erythromycin resistant strain; experiment: as above; format: cell-based; settings: read-out: Minimal bacteriostatic concentration
[9] = test system: Staphylococcus aureus novobiocin resistant strain; experiment: as above; format: cell-based; settings: read-out: Minimal bacteriostatic concentration
[10] = test system: Staphylococcus aureus streptogramin resistant strain; experiment: as above; format: cell-based; settings: read-out: Minimal bacteriostatic concentration
[11] = test system: Staphylococcus aureus actinomycin resistant strain; experiment: as above; format: cell-based; settings: read-out: Minimal bacteriostatic concentration
[12] = test system: Staphylococcus aureus strain 662 R; experiment: as above; format: cell-based; settings: read-out: Minimal bacteriostatic concentration
[13] = test system: Micrococcus lysodeikticus; experiment: as above; format: cell-based; settings: Micrococcus luteus, read-out: Minimal bacteriostatic concentration
[14] = test system: Gaffkya tetragena (Fac.Phie); experiment: as above; format: cell-based; settings: read-out: Minimal bacteriostatic concentration
[15] = test system: Sarcina lutea - ATCC 9341; experiment: as above; format: cell-based; settings: Micrococcus luteus, ATCC9341, read-out: Minimal bacteriostatic concentration
Sarcina alba (Fac.Phie) = experiment: as above; format: cell-based; settings: read-out: Minimal bacteriostatic concentration
[16] = test system: Streptococcus faecalis (Thiercelin's enterococcus Fac.Phie); experiment: as above; format: cell-based; settings: read-out: Minimal bacteriostatic concentration
[17] = test system: Streptococcus faecalis ATCC 9790; experiment: as above; format: cell-based; settings: Enterococcus faecalis, ATCC9790, read-out: Minimal bacteriostatic concentration
[18] = test system: Streptococcus viridans (Institut Pasteur); experiment: as above; format: cell-based; settings: read-out: Minimal bacteriostatic concentration
[19] = test system: Streptococcus pyogenes Hemolyticus (strain Dig 7, Instut Pasteur); experiment: as above; format: cell-based; settings: read-out: Minimal bacteriostatic concentration
[20] = test system: Diplococcus pneumoniae (strain Til. Institut Pasteur); experiment: as above; format: cell-based; settings: Streptococcus pneumoniae, read-out: Minimal bacteriostatic concentration
[21] = test system: Neisseria catarrhalis (Fac.Phie); experiment: as above; format: cell-based; settings: read-out: Minimal bacteriostatic concentration
[22] = test system: Corynebacterium pseudodiphtericum (Fac.Phie); experiment: as above; format: cell-based; settings: read-out: Minimal bacteriostatic concentration
[23] = test system: Lactobacillus casei - ATCC 7469; experiment: as above; format: cell-based; settings: Lacticaseibacillus casei, ATCC7469, read-out: Minimal bacteriostatic concentration
[24] = test system: Bacillus subtilis ATCC 6633; experiment: as above; format: cell-based; settings: ATCC6633, read-out: Minimal bacteriostatic concentration
[25] = test system: Bacillus subtilis (strain ZO 5 A, Fac. Phie); experiment: as above; format: cell-based; settings: read-out: Minimal bacteriostatic concentration
[26] = test system: Bacillus subtilis (strain 3 R 9575, Merck - ATCC 9524); experiment: as above; format: cell-based; settings: ATCC9524, read-out: Minimal bacteriostatic concentration
[27] = test system: Bacillus cereus ATCC 6630; experiment: as above; format: cell-based; settings: ATCC6630, read-out: Minimal bacteriostatic concentration
[28] = test system: Bacillus brevis ATCC 8185; experiment: as above; format: cell-based; settings: Brevibacillus brevis, ATCC8185, read-out: Minimal bacteriostatic concentration
Bacillus mycoides = experiment: as above; format: cell-based; settings: read-out: Minimal bacteriostatic concentration
[29] = test system: Bacillus megatherium (NRRL B 1125); experiment: as above; format: cell-based; settings: read-out: Minimal bacteriostatic concentration
[30] = test system: Mycobacterium smegmatis - ATCC 607; experiment: as above; format: cell-based; settings: Mycolicibacterium smegmatis, ATCC607, read-out: Minimal bacteriostatic concentration
[31] = test system: Mycobacterium phlei (Bacteriological Institute of Lyon); experiment: as above; format: cell-based; settings: Mycolicibacterium phlei, read-out: Minimal bacteriostatic concentration
[32] = test system: Mycobacterium para-smegmatis (A 75 - Lausanne); experiment: as above; format: cell-based; settings: read-out: Minimal bacteriostatic concentration
[33] = test system: Escherichia coli - ATCC 9637; experiment: as above; format: cell-based; settings: ATCC9637, read-out: Minimal bacteriostatic concentration
Excerpt: For each organism, the lowest concentration of substance has been determined which, under the defined condition, prevents all visible development in an appropriate nutritive broth. The results of various determinations are shown in Table VI, wherein the minimal bacteriostatic concentrations are expressed as micrograms of substance per cubic centimeter of experimental medium.

[34] = test system: Shigella dysenteriae (Shiga L. - Institut Pasteur); experiment: microbe, parasite or virus in culture; format: cell-based; settings: read-out: Minimal bacteriostatic concentration
[35] = test system: Salmonella typhimurium (Institut Pasteur); experiment: bacteriostatic activity, dilution method in nutritive broth; format: cell-based; settings: Salmonella enterica, read-out: Minimal bacteriostatic concentration
[36] = test system: Salmonella paratyphi A (Lacasse, Institut Pasteur); experiment: as above; format: cell-based; settings: Salmonella enterica, read-out: Minimal bacteriostatic concentration
[37] = test system: Salmonella schottmuelleri (paratyphi B) (Fougenc, Institut Pasteur); experiment: as above; format: cell-based; settings: read-out: Minimal bacteriostatic concentration
[38] = test system: Bacillus lactis aerogenes (Fac. Phie); experiment: as above; format: cell-based; settings: read-out: Minimal bacteriostatic concentration
[39] = test system: Aerobacter aerogenes - ATCC 8308; experiment: as above; format: cell-based; settings: Klebsiella aerogenes, ATCC8308, read-out: Minimal bacteriostatic concentration
[40] = test system: Alcaligenes faecalis - ATCC 8749; experiment: as above; format: cell-based; settings: ATCC8749, read-out: Minimal bacteriostatic concentration
[41] = test system: Proteus vulgaris (Fac. Phie); experiment: as above; format: cell-based; settings: read-out: Minimal bacteriostatic concentration
Proteus X 19 = experiment: as above; format: cell-based; settings: read-out: Minimal bacteriostatic concentration
[42] = test system: Klebsiella pneumoniae - ATCC 10,031; experiment: as above; format: cell-based; settings: ATCC10, read-out: Minimal bacteriostatic concentration
[43] = test system: Serratia marcescens (A. 476,Lausanne); experiment: as above; format: cell-based; settings: read-out: Minimal bacteriostatic concentration
[44] = test system: Pseudomonas aeruginosa (Bass strain - Institut Pasteur); experiment: as above; format: cell-based; settings: read-out: Minimal bacteriostatic concentration
[45] = test system: Brucella bronchiseptica (CN 387 - Wellcome Institute); experiment: microbe, parasite or virus in culture; format: cell-based; settings: Bordetella bronchiseptica, read-out: Minimal bacteriostatic concentration
[46] = test system: Pasteurella multocida (A. 125 - Institut Pasteur); experiment: bacteriostatic activity, dilution method in nutritive broth; format: cell-based; settings: read-out: Minimal bacteriostatic concentration
Klebsiella pneumoniae = experiment: turbidimetric estimation of activity by comparison with a 9865 RP sample of known activity; format: cell-based; settings: unit = smallest quantity in 1 cc. of medium that inhibits growth of Klebsiella pneumoniae
Excerpt: The following non-limitative Examples illustrate the invention. […] This activity is expressed in units (u) per mg. for solid products and in units per cc. for solution. (The unit is defined as the smallest quantity of product which, dissolved in 1 cc. of an appropriate medium, inhibits the growth of Klebsiella pneumoniae under the conditions in question).

lymphosarcoma = experiment: utility in treating certain tumours; format: in vivo, human
nephroblastoma = experiment: utility in treating certain tumours; format: in vivo, human
neuroblastoma = experiment: utility in treating certain tumours; format: in vivo, human
[47] = test system: acute lymphoblastic leukemia; experiment: utility in treating certain tumours; format: in vivo, human
[48] = test system: acute myeloblastic leukemia; experiment: utility in treating certain tumours; format: in vivo, human
[49] = test system: Bacillus subtilis or Klebsiella pneumoniae; experiment: paper chromatography with bioautography on seeded agar plates; format: cell-based; settings: paper chromatogram
Excerpt: The antibiotic is chromatographed on Arches No.302 paper impregnated with a pH 4.8 phosphate buffer, with n-butanol saturated with water, using descending development. The chromatogram is developed by bioautography on nutritive agar plates seeded with Bacillus subtilis or Klebsiella pneumoniae.

blood-forming centers = experiment: clinical safety of daunorubicin: blood formation; format: in vivo; settings: human treatment
[50] = clinical safety of daunorubicin: heart; format: in vivo; settings: human treatment
[51] = clinical dosage in acute leukaemias: maximum safe dose; settings: human, in vivo, iv, overall dosage of initial treatment, calculated per kg weight
Protocol: Treatment of acute leukaemias must be intensive and of short duration; depending on the case, it comprises one or more courses. In the lymphoblstic forms of leukaemia, the actual trend is to administer a daily dose of 1 mg/kg body weight of two to eight consecutive days, and to cease injections when the leucopenia reaches 1,000 to 1,500 units per cc. It will be recalled that characteristic changes in the medullary cytology fcilitate the conducting of the treatment and help in its adaptation to each particular case. […] It is, moreover, at the end of the aplastic phase, when the number of leucocytes is rising again, that adjustement of the theraputic dose is difficult. When, the day after medication was stopped the leucopenia worsens and the medullary blasts change, it is required to wait for regeneration of the blood before proceeding with a bone marrow test. If the lqucopenia is not accentuated and the medullary cytology remains high with persistence of blastic cells, a second course is undertaken. […] The overall dosage corresponding to the group of courses making up the initial treatment, such as has just been defined, is far from being uniform; calculated per kg weight, it sometimes reaches 20 mg, a dose of around 25 mg being considered the maximum safe dose. […]

[52] = acute toxicity in the mouse; settings: in vivo, sc
[53] = subacute toxicity in the mouse (one dose per day for 5 days); settings: in vivo

COc1cccc2c1C(=O)c1c(O)c3c(c(O)c1C2=O)C[C@@](O)(C(C)=O)C[C@@H]3O[C@H]1C[C@H](N)[C@H](O)[C@H](C)O1 [13057 RP daunorubicin hydrochloride]
solubility in chloroform (solubility; listed as hydrochloride): slightly soluble
solubility in water (solubility; listed as hydrochloride): soluble

COc1cccc2c1C(=O)c1c(O)c3c(c(O)c1C2=O)C[C@@](O)(C(C)=O)C[C@@H]3O[C@H]1C[C@H](N)[C@H](O)[C@H](C)O1 [13057 RP daunorubicin, daunorubicin]
MIC [1]: 5.2 µg/mL (≈ 9.86 µM)
MIC [2]: 5.3 µg/mL (≈ 10 µM)
MIC [3]: 7.1 µg/mL (≈ 13.5 µM)
MIC [4]: 4.8 µg/mL (≈ 9.1 µM)
MIC [5]: 2.1 µg/mL (≈ 3.98 µM)
MIC [6]: 5.2 µg/mL (≈ 9.86 µM)
MIC [7]: 5.3 µg/mL (≈ 10 µM)
MIC [8]: 3.8 µg/mL (≈ 7.2 µM)
MIC [9]: 3.9 µg/mL (≈ 7.39 µM)
MIC [10]: 1.9 µg/mL (≈ 3.6 µM)
MIC [11]: 5.8 µg/mL (≈ 11 µM)
MIC [12]: 6.3 µg/mL (≈ 11.9 µM)
MIC [13]: 2.5 µg/mL (≈ 4.74 µM)
MIC [14]: 6.7 µg/mL (≈ 12.7 µM)
MIC [15]: 1.2 µg/mL (≈ 2.27 µM)
MIC (Sarcina alba (Fac.Phie)): 3.3 µg/mL (≈ 6.26 µM)
MIC [16]: 19 µg/mL (≈ 36 µM)
MIC [17]: 30 µg/mL (≈ 56.9 µM)
MIC [18]: 43 µg/mL (≈ 81.5 µM)
MIC [19]: 1.6 µg/mL (≈ 3.03 µM)
MIC [20]: 0.89 µg/mL (≈ 1.69 µM)
MIC [21]: 2.2 µg/mL (≈ 4.17 µM)
MIC [22]: 1.7 µg/mL (≈ 3.22 µM)
MIC [23]: 1.2 µg/mL (≈ 2.27 µM)
MIC [24]: 1.2 µg/mL (≈ 2.27 µM)
MIC [25]: 1.5 µg/mL (≈ 2.84 µM)
MIC [26]: 1.8 µg/mL (≈ 3.41 µM)
MIC [27]: 2.2 µg/mL (≈ 4.17 µM)
MIC [28]: 1.4 µg/mL (≈ 2.65 µM)
MIC (Bacillus mycoides): 1.8 µg/mL (≈ 3.41 µM)
MIC [29]: 1.3 µg/mL (≈ 2.46 µM)
MIC [30]: 1.2 µg/mL (≈ 2.27 µM)
MIC [31]: 5 µg/mL (≈ 9.48 µM)
MIC [32]: 2.2 µg/mL (≈ 4.17 µM)
MIC [33]: 500 µg/mL (≈ 948 µM)
MIC [34]: 2000 µg/mL (≈ 3790 µM)
MIC [35]: 1000 µg/mL (≈ 1900 µM)
MIC [36]: 16 µg/mL (≈ 30.3 µM)
MIC [37]: 1000 µg/mL (≈ 1900 µM)
MIC [38]: 120 µg/mL (≈ 227 µM)
MIC [39]: 1000 µg/mL (≈ 1900 µM)
MIC [40]: 1.8 µg/mL (≈ 3.41 µM)
MIC [41]: > 2000 µg/mL
MIC (Proteus X 19): 62 µg/mL (≈ 118 µM)
MIC [42]: 8.9 µg/mL (≈ 16.9 µM)
MIC [43]: 120 µg/mL (≈ 227 µM)
MIC [44]: 1000 µg/mL (≈ 1900 µM)
MIC [45]: 62 µg/mL (≈ 118 µM)
MIC [46]: 1.8 µg/mL (≈ 3.41 µM)
activity (Klebsiella pneumoniae): 160 μ/mg.
utility in treating tumours (lymphosarcoma): proved to be of utility
utility in treating tumours (nephroblastoma): proved to be of utility
utility in treating tumours (neuroblastoma): proved to be of utility
utility in treating tumours [47]: proved to be of utility
utility in treating tumours [48]: proved to be of utility
active substance by bioautography [49]: active
solubility in alcohols (solubility; alcohols): soluble
solubility in benzene (solubility; benzene): practically insoluble
solubility in chloroform (solubility): soluble
solubility in diethyl ether (solubility; diethyl ether): practically insoluble
solubility in ketones (solubility; ketones): very slighly soluble
solubility in water (solubility): very slighly soluble
action on the blood-forming centers (blood-forming centers): depressant action
cardiac complications [50]: sometimes accompanied by cardiac complications
MTD [51]: ~25 mg/kg
LD50 [52]: 47 mg/kg
LD50 ([53]; iv): 8.75 mg/kg
LD50 ([53]; sc): 13.7 mg/kg
